We go through 19 molecules from PubChem BioAssay (NCI).

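A five-concentration, 48-hour dose response in 96-well plates underlies each endpoint, interpolated linearly between surrounding concentrations. At the TGI there is no net growth.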

Common to all, as to assay: growth of human tumour cells (NCI), 48 h
Assay [1] has as its system CCRF-CEM leukemia.
For assay [2], the system named is HL-60(TB) leukemia.
The test system of assay [3] is HOP-62 NSCLC.
The test system of assay [4] is K-562 leukemia.
Assay [5] deals with MALME-3M melanoma.
Assay [6] has as its system NCI-H226 lung.
The subject of assay [7] is OVCAR-3 ovarian.
For assay [8], the system named is PC-3 prostate.
Assay [9] relates to RXF 393 renal.
Assay [10] has as its system SF-295 CNS.
The subject of assay [11] is SK-MEL-5 melanoma.
Assay [12] has as its system SNB-19 CNS.

On to `c1ccc2c3c(c(N4CCNCC4)nc2c1)CCCC3`, for which the TGI in assay [1] is 31.4 µM; in assay [2], 24.3 µM; in assay [3], 48.4 µM; in assay [4], over 100 µM; in [5], 37.3 µM; in assay [6], 29.6 µM. The TGI in assay [7] was determined as 40.1 µM; in assay [8], 25.7 µM; in assay [9], 22.7 µM; in assay [10], 45.8 µM; in assay [11], 24.3 µM; in [12], 29.2 µM.
For `NC(=O)c1ccc(N)nc1`, the TGI is 394 µM in assay [1]; over 400 µM in assay [2]; over 247 µM in assay [3]; over 400 µM in [4]; over 400 µM in assay [5]; over 400 µM in assay [6]. The TGI in assay [7] was over 400 µM; in [8], over 400 µM; in assay [9] it was 0.864 µM; in assay [10] it was over 400 µM; in assay [12], over 400 µM.
On to `CN(C)CCNc1ccccn1`, for which the TGI in assay [2], in assay [3], in [4], in assay [5], in assay [6] and in [7] was over 100 µM in each case. In addition, the TGI in assay [8], in assay [9], in assay [10], in [11] and in assay [12] was over 100 µM each time.
Consider `CS(=O)(=O)c1ccc(C2=C(c3ccccc3)C(=O)OC2)cc1`, for which the TGI in [1], in [2], in assay [3], in assay [4], in assay [5] and in assay [6] was over 100 µM each time. Moreover, the TGI in [7], in assay [8], in assay [9], in assay [10], in assay [11] and in assay [12] was over 100 µM in each case.
For `O=C1OS2(OC(=O)c3cccc4cccc2c34)c2ccccc21` (centres undefined), the TGI in assay [1], in assay [2], in [3], in assay [4], in [5] and in assay [6] was over 100 µM each time. For the same molecule, the TGI in assay [7], in assay [8], in assay [9], in assay [10], in [11] and in [12] was over 100 µM in each case.
For `CC(C)=CCC[C@@H](C)c1c(O)c(O)c(C)c2nc3ccccc3nc12`, the TGI was 0.8 µM in assay [1]; 2.98 µM in assay [2]; 8.48 µM in assay [3]; over 32.5 µM in [4]; 7.53 µM in [5]; 5.97 µM in assay [6]. Also, the TGI was determined as 3.28 µM in assay [7]; 11.3 µM in [8]; 4.45 µM in assay [9]; 4.93 µM in assay [10]; 10.6 µM in assay [11]; 15.5 µM in [12].
As for `Cc1cc([C@H](C#N)c2nc3ccccc3s2)nc(Cl)n1`, the TGI in assay [1] is over 100 µM; in assay [2], over 100 µM; in [3] it was over 100 µM; in assay [4] it was over 100 µM; in assay [5], 17 µM; in assay [6], 35.1 µM. The TGI in assay [7] was over 100 µM; in assay [8], over 100 µM; in [9] it was over 100 µM; in [10] it was over 100 µM; in assay [11], 45.9 µM; in assay [12], over 100 µM.
In the case of `CN(CCN(C)Cc1ccc(Cl)c(Cl)c1)CCN1CCCC1`, the TGI in assay [1] was 23.6 µM; in assay [2], over 100 µM; in assay [3] it was over 100 µM; in [4], 32.2 µM; in assay [5], 35.8 µM; in assay [6] it was 94.9 µM. Besides, the TGI in [7] is over 100 µM; in assay [8], over 100 µM; in assay [9] it was 99.9 µM; in [10], over 88.7 µM; in [11] it was 29.1 µM; in [12], over 100 µM.
As to `O=C(NCCc1ccc(F)cc1)c1cc(/C=C/c2cc(O)ccc2O)ccc1O`, the TGI was over 100 µM in assay [1]; 15.4 µM in [2]; 14.8 µM in [3]; over 29.2 µM in [4]; 5.92 µM in assay [5]; 29.5 µM in assay [6]. Also, the TGI in assay [7] is 8.44 µM; in assay [8], 10.9 µM; in assay [9], 4.4 µM; in assay [10], 36.2 µM; in assay [11], 6.35 µM; in assay [12], 20.8 µM.
Take `COC(=O)/C=C1\C(=O)N(C(C)=O)c2ccccc21`: the TGI was 10.1 µM in assay [1]; 5.61 µM in assay [2]; 30.2 µM in assay [3]; over 96.5 µM in assay [4]; 27.5 µM in assay [5]; 27.8 µM in [6]. Further, the TGI was 23 µM in [7]; over 54.9 µM in [8]; 21.5 µM in [9]; over 55.2 µM in assay [10]; 27.8 µM in assay [11]; over 51.9 µM in [12].
On to `NC1=CN2c3ccccc3N(CC(=O)N3CCOCC3)C2C=C1` (centres undefined), for which the TGI in [1], in [2], in assay [3], in assay [4], in assay [5] and in [6] was over 100 µM throughout. Also, the TGI in assay [8], in assay [9], in assay [10], in [11] and in assay [12] was over 100 µM throughout.
As to `COC(CO[Si](C)(C)N[Si](C)(C)OCC(OC)c1ccccc1)c1ccccc1` (centres undefined), the TGI in assay [1], in assay [2], in [3], in [4], in [6] and in [7] was over 100 µM each time. Also, the TGI in [8], in [9], in assay [10], in assay [11] and in assay [12] was over 100 µM throughout.
Take `CS(=O)(=O)c1nc(-c2cc3c(c(S(C)(=O)=O)n2)CCC3)cc2c1CCC2`: the TGI in [1], in [2], in assay [3], in assay [4], in assay [6] and in assay [7] was over 100 µM each time. Also, the TGI in assay [8], in [9], in assay [10], in [11] and in [12] was over 100 µM each time.
On to `O=C(OCc1ccccc1[N+](=O)[O-])N1c2ccccc2[C@@]23O[C@]24CCC[C@H]3C#C/C=C\C#C[C@H]14`, for which the TGI in [1] is 66.6 µM; in assay [2], 25.9 µM; in assay [4], over 100 µM; in assay [5], over 100 µM; in assay [6], over 100 µM; in [7] it was over 100 µM. Also, the TGI in [8], in assay [9], in assay [10], in [11] and in [12] was over 100 µM each time.
On to `Oc1cccc(-c2cc(=S)ss2)c1`, for which the TGI in assay [2] was found to be 48.5 µM; in assay [3] it was 34.3 µM; in assay [4] it was 60.6 µM; in assay [5], 32.5 µM; in assay [6] it was 41 µM; in assay [8] it was 28.3 µM. The TGI is 40.5 µM in assay [9], 29.5 µM in [10], 19.7 µM in assay [11] and 36.4 µM in [12].
In the case of `Cc1cc(S(=O)(=O)Nc2nc(N)n(-c3ccccc3)n2)c(S)cc1Cl`, the TGI in assay [1], in assay [2], in assay [3], in assay [4], in [5] and in assay [6] was over 100 µM each time. Also, the TGI in assay [7], in assay [8], in assay [9], in assay [11] and in [12] was over 100 µM each time.
Regarding `NCCCCN(CCCN)C(=O)OCc1ccccc1`, the TGI in assay [1], in assay [2], in assay [3], in assay [4], in [6] and in [7] was over 100 µM in each case. In addition, the TGI in assay [8], in [9], in [10], in [11] and in [12] was over 100 µM each time.
For the molecule `CCNc1nc2ccccc2nc1NCC`, the TGI in [1], in [2], in [4], in assay [5], in assay [6] and in assay [7] was over 100 µM in each case. For the same molecule, the TGI in [8], in assay [9], in [10], in [11] and in [12] was over 100 µM each time.
With `CC(=O)Nc1ccc(S(=O)(=O)/N=c2/sc(S(N)(=O)=O)nn2C)cc1`, the TGI in assay [2], in [3], in [5], in assay [6], in assay [7] and in assay [8] was over 100 µM throughout. Also, the TGI in assay [9], in assay [10] and in [12] was over 100 µM each time.
